Assays:
[1] = Aqueous stability studies (UV-vis monitoring, ESI-MS follow-up); assay type: physicochemical; settings: PBS pH 7.4, HEPES pH 7.0 and acetate buffer pH 4.6; 37 °C, 18 hours, 50 μM
Experimental: The stability of complexes 14–17 in an aqueous environment was investigated. The stability experiments were performed in PBS (pH 7.4) and HEPES (pH 7.0) buffers, as well as in acidic acetate buffer (pH 4.6), by monitoring the UV-vis spectra of the compounds at 37 °C over an 18-hour period.
To further investigate the stability of 14, the PBS, HEPES and acetate buffer solutions were evaporated to dryness, and then analysed using electrospray ionisation mass spectrometry in the positive ionisation mode.
PBS and HEPES buffers were prepared as described above. An acetate buffer with a concentration of […] and a pH of 4.60 was prepared by dissolving 5.40 g (65.83 mmol) of sodium acetate in 50 mL of dH2O. The resulting solution was then titrated to a pH of 4.60 with glacial acetic acid and made up to 100 mL with dH2O.
1 mM stock solutions of the synthesised target compounds in MeOH were prepared. 1.90 mL of buffer (PBS, HEPES or acetate buffer) was pipetted into cuvettes followed by the addition 100 μL of test compound stock solutions, diluting them to a final concentration of 50 μM. The cuvettes were then stoppered, inverted to mix the solution, and placed in an Agilent Cary 3500 UV-vis spectrophotometer as fast as possible. Blank solutions in matched cuvettes were also prepared by adding 100 μL of MeOH to 1.9 mL of buffer. The solutions in all the cuvettes were stirred at 400 rpm ensure proper mixing. UV spectra were then recoded every 5 minutes for 18 hours with a spectral width of 200–1100 nm to monitor the stability of the test compounds.

T. gondii parasites = assay: Determination of ROS formation by FACS (CellROX deep red); assay type: cell-based, Toxoplasma gondii; settings: 66 μM, 18 hours, compared with untreated parasites
Experimental: Once it had been established that two of the synthesised ferrocenyl benzimidazole derivatives were biologically active, their potential mode of action was explored. Given the presence of the ferrocenyl moiety, and the cyclic voltammetry results, it was of interest to investigate whether the compounds induce ROS, which may provide an explanation for their anti-parasitic activity. Thus, cells heavily infected with parasites were incubated with target compounds for 18 hours, before isolating the parasites and staining them with CellRox deep red reagent. CellRox is an oxidation sensitive dye which is non-fluorescent in its reduced state but fluoresces bright red at 665 nm upon being oxidised by ROS. FACS was then used to quantify CellROX parasite florescence.[56] Parasites were incubated with ferrocene carboxylic acid (FcCOOH), and untreated parasites were used as controls.
6 cm dishes of host cells heavily infected with T. gondii were untreated or treated with 66 μM (second highest concentration used in growth inhibition assays) of test compounds for 18 hours. The dishes were then scratched and syringed, before filtering the solution into 10 mL falcon tubes to remove cell debris. The tubes were spun down for 10 minutes at 1500 rpm. The media was then removed from the tubes, and the pellet resuspended in 200 μL of PBS buffer. For each drug, 100 μL of the resuspended pellet was then placed into 2 FACS tubes, one which would then be stained with CellROX dye, and the other 100 μL of PBS added to act as an unstained control. A 1 : 125 dilution of CellROX stock solution was performed, and 100 μL of this solution added to the FACS tubes needing staining. Stained tubes were incubated at 37 °C for at least 15 min before analysis on a BD Celesta flow cytometer. Data was obtained using FACSDiva software with parasites being gated on forward scatter, side scatter and green fluorescence. FlowJo v10 software was used to plot the geometric mean of CellRox fluorescence from at least 5000 parasites on the Cy7 channel.

## O=C(NCCn1cnc2cccnc21)[c-]1cccc1.[Fe+2].c1cc[cH-]c1 [Compound 17]
[1]
  Change of UV-vis spectrum over time (aqueous stability): remained unchanged
T. gondii parasites
  ROS formation in treated parasites (CellRox red fluorescence): triggered the formation of ROS
